Earlier results in patent publication US20240398972A1, “METHODS FOR PRODUCING ANTIBODY-LINKER CONJUGATES” (ARARIS BIOTECH AG, priority 2021, published 2024).

Legend:
[1] = target: DNA-dependent RNA polymerase II (Homo sapiens, UniProt P24928); conditions: complex amanitin / RNA-polymerase II, not covalently bound
various tumor cell lines = conditions: cytostatic effects

In the case of amanitin, the Kd [1] is listed as 3 nM.
In the case of CC[C@H](C)[C@H](NC(=O)[C@H]1CCCCN1C)C(=O)N(COC(=O)CC(C)C)[C@H](C[C@@H](OC(C)=O)c1nc(C(=O)N[C@@H](Cc2ccc(O)cc2)C[C@H](C)C(=O)O)cs1)C(C)C [Tubulysin A], the IC50 (various tumor cell lines) is given as “picomolar range”.
